Assay results: patent EP0341300B1, “STIMULATION OF STEM CELL GROWTH BY THE BRYOSTATINS” (priority 1987, dated 1989)
Entries after “also recorded” stand apart in the source; their conditions may differ.

Columns and labels:
[1] = tested on: light-density, adherence-depleted normal human bone marrow cells; assay: Granulocyte-macrophage colony formation (CFU-GM) in agar culture; assay type: cell-based
Description: For determining effective concentrations of bryostatins for granulocyte and macrophage colony formation, light density, adherence-depleted human bone marrow cells can be obtained. The cells can be suspended in a suitable medium, such as supplemented McCoy's 5A medium containing 0.3% agar and plated in 35 mm petri dishes as described in Pike et al, Journal of Cell Physiology, Vol. 76, pp. 77-83, 1970. For the bryostatins which have been tested and found to be effective, i.e., 1, 3, 8 and 9, maximum stimulatory concentrations are between about 10⁻⁷M and 10⁻¹⁰M.
Granulocyte-macrophage colony-forming unit (CFU-GM) colonies were enumerated from light-density, adherence-depleted normal human bone marrow cells. Cells were suspended in supplemented McCoy's 5A medium containing 0.3% agar and plated in 35-mm Petri dishes as described in Pike et al, J. Cell Physiol., Vol. 76, pp. 77-83, 1970. Colonies were enumerated following incubation of bone marrow with cells with rHGM-CSF at 50 ng/ml (Genetics Institute) or bryostatin 1 (●) bryostatin 3(o), bryostatin 8(♢), bryostatin 9(+), or bryostatin 13 (▲) at the concentrations indicated. After 14 days of culture at 37°C in a humidified atmosphere containing 7.5% CO₂, colonies of greater or equal to 50 cells were scored. Representative results from one of several experiments are reported as the mean colony number from quadruplicate samples. SEM is within 10% of the mean number.

[2] = tested on: Normal human peripheral blood neutrophils; assay: Neutrophil chemiluminescence with luminol; assay type: cell-based; conditions: 15 min incubation, then 10 uM luminol; rhGM-CSF at 50 ng/ml
Description: To determine the effective amount of bryostatin for neutrophil activation, normal human peripheral blood neutrophil cells can be purified on a density gradient such as a Ficoll gradient. Other immune regulatory cells, such as T-lymphocytes and macrophages can be isolated by standard and known techniques. The neutrophils can be suspended in Dulbecco's phosphate-buffered saline supplemented with calcium and magnesium. One way to monitor neutrophil activation is to observe chemiluminescence. The neutrophils can be incubated for about fifteen minutes with the bryostatin. Then luminol (5-amino-2-3-dihydro-1, 4-phthalazinedione) can be added to a concentration of about 10 uM. Chemiluminescence can be measured in a luminometer as described in Allen et al, Biochemistry and Biophysics Research Communications, Vol. 69, pp. […], 1976.
Normal human peripheral blood neutrophils were highly purified on a double Ficoll density gradient and suspended in Dulbecco's phosphate-buffered saline supplemented with Ca²⁺ and Mg²⁺. First, substances to be tested were incubated with the neutrophils for 15 min. At this point 10 uM luminol (5-amino-2, 3-dihydro-1, 4-phtyalazinedione) was added to each sample. The generation of chemiluminescence was measured in a luminometer at 1.25 min intervals for up to 20 min.

[3] = tested on: P388 lymphocytic leukemia line; conditions: reported by others (Pettit et al); test system not named; cited from earlier work
normal human bone marrow = assay: Clone transfer assay (growth of transferred clones in secondary plates); assay type: cell-based; conditions: primary culture 10 nM bryostatin 1 for 4 days; secondary plates bryostatin 1 10 nM or rhGM-CSF 50 ng/ml, 10 further days
Method: Assays were performed essentially as described in Metcalf et al, Blood, Vol. 67, pp. 37-45, 1986. Briefly, cultures of normal human bone marrow were initiated in medium containing 10 nM bryostatin 1. Following 4 days of growth, clones of 4-8 cells were carefully removed using a glass pipette to avoid contamination by surrounding cells and transferred to secondary plates containing either rhGM-CSF (50 ng/ml) or bryostatin 1 (10 nM) as the source of CSF). After an additional 10 days of culture, the number of clones that had proliferated to form a colony of 40 cells or more was determined. Further growth was not observed in colonies transferred to plates containing no added CSF. (See Figure 3.)
Each symbol (●) represents a colony. Its height in each column is proportional to the number of cells in that colony. The data directly above sections G of the column represent colonies composed entirely of granulocytic cells. The data above sections GM in the column represent colonies composed of both granulocytic and monocytic cells. No colonies in secondary plates were detected that were composed of macrophage-monocyte cells only. The numerator in the fraction at the top of each column represents the number of colonies that developed in the secondary plate, and the denominator represents the total number of clones transferred.

[4] = tested on: early BFU-E and late CFU-E human erythroid progenitors; assay: Erythroid progenitor assay, plasma-clot method with erythropoietin; assay type: cell-based; conditions: plasma clots, optimal erythropoietin
Description: Amounts of bryostatin which are effective for stimulating hematopoiesis or neutrophil and other immune regulatory cell activation, can be determined using any of the assays known in the art. For example, early and late erythrocyte progenitors can be enumerated using the plasma clot method described in McLeod et al, Blood, Vol. 44, p. 517, 1974. Stimulation of such erythrocyte progenitors requires the presence of erythropoietin.
Assays for both early (BFU-E) and late (CFU-E) progenitors were enumerated as described in McLeod et al, Blood, Vol. 44, p. 517 (1974) using the plasma-clot method and optimal concentrations of erythropoietin. Bryostatin 1 stimulated both early BFU-E and late CFU-E human erythroid progenitors growth in plasma clots. The maximal stimulatory concentration was between 1 and 10 pM, with an inhibitory effect noted at concentrations above 1 nM.

K562 target cells = assay: Activated neutrophil cytotoxicity, 51Cr release; assay type: cell-based, human; conditions: for % specific lysis, 7.5 / % specific lysis, column 15 / % specific lysis, column 30: Bryostatin alone (no neutrophils)
Method: Alternatively, neutrophil activation can be assayed using a cytoxicity assay. Purified neutrophils can be incubated at a density of about 3x10⁶ cells per ml with various concentrations of bryostatin. The cells can be washed and added to radiolabelled target cells. K562 tumor cells and ⁵¹ Cr-label can be used to measure cytoxicity. The target cells are preincubated with the radiolabelled substance to effect uptake of the radiolabel. The target cells can be mixed with the neutrophils at various effector to target cell ratios, such as between about 50:1 and 5:1, Release of label from the target cells can be measured either by assaying the supernatant or the cells after centrifugation. Of course, other methods known in the art, such as using other assays of immune regulatory cell cytotoxicity can be used. Bryostatin 1 has activity toward neutrophils at about 10⁻¹⁰ to 10⁻⁷M, with a maximum activation effect on neutrophil cytotoxicity of K562 target cells at a concentration of about 10⁻⁷M.
Furthermore, activation of neutrophil cytotoxicity, as measured by killing of ⁵¹Cr-labeled K562 tumor target cells was also sitmulated by bryostatin 1 (Table 1). Neutrophils were purified as described above. Neutrophils were incubated at a density of 3 x 10⁶ cells per ml first with various concentrations of bryostatin 1 (0.1 uM to 0.1 nM), rhGM-CSF (50 ng/ml), or in medium alone for 2 hr. Following two washes, the cells were added to the ⁵¹Cr-labeled K562 target cells at effector/target cell ratios of 30:1, 15:1, or 7.5:1 as indicated. Control plates containing ⁵¹Cr-labeled K562 cells and either bryostatin or medium alone were evaluated to determine the spontaneous release of isotope. The plates containing the cells were centrifuged at 250 x g for 2 min and then incubated for 3 hrs at 37°C. One hundred microliters of the supernatant was harvested from each well, and the amount of radioactivity present was determined in a gamma scintillation counter. The maximum release of ⁵¹Cr was determined by assaying supernatant obtained from wells in which the cells were completely lysed with 6 M HCl.
Assessment of neutrophil cytotoxicity induced by bryostatin 1. K562 cells were labeled with […] and adjusted to a concentration of 10³ cells per ml in RPMI 1640 medium. Activated neutrophil cytotoxicity was determined. The results are expressed as the percentage of specific isotope released at the indicated effector/target cell ratio calculated as follows: % specific lysis = [(mean cpm of sample - mean cpm spontaneously released)/(mean cpm maximal -mean cpm spontaneously released)] x 100 [formula] . [formula] Maximum induced cpm released as 7364 ± 149. The maximum mean % specific lysis from triplicate determinations from a representative experiment is shown.

[5] = tested on: multi-potential hematopoietic progenitors; assay: Continuous 7-day subcutaneous infusion by osmotic micropump in mice; assay type: in vivo, BDF₁ mice
Method: A dose-response stimulatory effect on multi-potential hematopoietic progenitors was noted. The administration of 144 ug/kg/d (max. dose) increased CFU-S, CFU-GM and BFU-E compared to control animals infused with vehicle alone. CFU-S from spleen cells of treated animals were increased 2-fold (19 vs. 39 colonies per 10⁶ cells injected), while bone marrow CFU-S was not altered. Likewise, CFU-GM colonies from spleen cells were increased 3.6-fold (52 vs. 188 per 10⁶ cells injected), and increased 2-fold (73 vs. 150 per 10⁵ nuc. cells) in bone marrow.

[6] = neutrophils plus 10^-7M, 0.1 µM
[7] = neutrophils plus 10^-8M, 0.01 µM
[8] = neutrophils plus 10^-9M, 0.001 µM
[9] = neutrophils plus 10^-10M, 0.0001 µM

Compound: CCC/C=C/C=C/C(=O)O[C@H]1[C@H]2C=C3C[C@H]([C@@H](C)O)OC(=O)C[C@H](O)C[C@@H]4C[C@H](OC(C)=O)C(C)(C)[C@](O)(C[C@@H]5C/C(=C\C(=O)OC)C[C@H](/C=C/C(C)(C)[C@]1(OC(=O)C2)O3)O5)O4 [Bryostatin 3, bryostatin 3]
- granulocyte-macrophage colony stimulating activity (in words) ([1]; 14 days of culture): clearly less potent than bryostatin 1 or 8

Compound: CCCC(=O)O[C@H]1/C(=C/C(=O)OC)C[C@H]2C[C@H]([C@@H](C)O)OC(=O)C[C@H](O)C[C@@H]3C[C@H](OC(C)=O)C(C)(C)[C@](O)(C[C@@H]4C/C(=C/C(=O)OC)C[C@H](/C=C/C(C)(C)[C@]1(O)O2)O4)O3 [Bryostatin 9, bryostatin 9]
- granulocyte-macrophage colony stimulating activity (in words) ([1]; 14 days of culture): much less potent stimulator; also recorded: weaker stimulator; also recorded: only a weak stimulator

Compound: CCCC(=O)O[C@H]1C[C@H]2C[C@@H](O)CC(=O)O[C@@H]([C@H](C)O)C[C@@H]3C/C(=C\C(=O)OC)C[C@@](O)(O3)C(C)(C)/C=C/[C@H]3C/C(=C\C(=O)OC)C[C@@H](C[C@](O)(O2)C1(C)C)O3 [Bryostatin 13, bryostatin 13]
- granulocyte-macrophage colony stimulating activity (in words) ([1]; 14 days of culture): totally inactive; also recorded: completely inactive
- activation of neutrophil chemiluminescence [2]: not
- antineoplastic activity [3]: retain potent antineoplastic activity

Compound: bryostatin 1
- colony morphology ([1]; 7 and 14 days of culture): primarily mixed granulocyte-macrophage and pure granulocyte colonies
- lowest concentration at which colony stimulating activity was observed ([1]; 14 days of culture): 10 pM
- maximal effective concentration for stimulation of CFU-GM ([1]; 14 days of culture, colonies of >= 50 cells scored): 1 to 10 nM
- growth of transferred clones on secondary plates (normal human bone marrow): produced full-size colonies
- concentrations with an inhibitory effect on erythroid progenitors [4]: above 1 nM
- activation of neutrophil chemiluminescence [2]: potent activator
- concentration of maximum activation effect on neutrophil cytotoxicity of K562 target cells (K562 target cells): about 10⁻⁷ M
- % specific lysis, 7.5 (K562 target cells; 10^-7M, 0.1 µM): -0.6%
- % specific lysis, column 15 (K562 target cells; 10^-7M, 0.1 µM): 0.3%
- % specific lysis, column 30 (K562 target cells; 10^-7M, 0.1 µM): 1.5%
- % specific lysis, 7.5 (K562 target cells; 10^-8M, 0.01 µM): 0.3%
- % specific lysis, column 15 (K562 target cells; 10^-8M, 0.01 µM): 1.0%
- % specific lysis, column 30 (K562 target cells; 10^-8M, 0.01 µM): 0.9%
- % specific lysis at effector/target ratio 7.5 (K562 target cells; [6]): 7.8%
- % specific lysis at effector/target ratio 15 (K562 target cells; [6]): 18.1%
- % specific lysis at effector/target ratio 7.5 (K562 target cells; [7]): 0%
- % specific lysis at effector/target ratio 15 (K562 target cells; [7]): 2.4%
- % specific lysis at effector/target ratio 30 (K562 target cells; [7]): 8.4%
- % specific lysis at effector/target ratio 7.5 (K562 target cells; [8]): 0%
- % specific lysis at effector/target ratio 15 (K562 target cells; [8]): 1.8%
- % specific lysis at effector/target ratio 30 (K562 target cells; [8]): 0.9%
- % specific lysis at effector/target ratio 7.5 (K562 target cells; [9]): 0.9%
- % specific lysis at effector/target ratio 15 (K562 target cells; [9]): 1.0%
- % specific lysis at effector/target ratio 30 (K562 target cells; [9]): -0.8%
- CFU-GM colonies from spleen cells ([5]; 144 ug/kg/d, 7 days): 188 per 10⁶ cells injected
- CFU-GM colonies in bone marrow ([5]; 144 ug/kg/d, 7 days): 150 per 10⁵ nuc. cells
- CFU-S from spleen cells ([5]; 144 ug/kg/d, 7 days): 39 colonies per 10⁶ cells injected
- Erythroid BFU-E colonies from spleen cells ([5]; 144 ug/kg/d, 7 days): 58 per 10⁶ cells
- bone marrow BFU-E progenitors ([5]; 144 ug/kg/d, 7 days): no change
- bone marrow CFU-S ([5]; 144 ug/kg/d, 7 days): not altered
- increase of CFU-GM colonies from spleen cells vs. vehicle control ([5]; 144 ug/kg/d, 7 days): 3.6 fold
- increase of CFU-GM colonies in bone marrow vs. vehicle control ([5]; 144 ug/kg/d, 7 days): 2 fold
- increase of CFU-S from spleen cells vs. vehicle control ([5]; 144 ug/kg/d, 7 days): 2 fold
- increase of erythroid BFU-E colonies from spleen cells vs. vehicle control ([5]; 144 ug/kg/d, 7 days): 2 fold
- differential peripheral white blood cell, hemocrit, bone marrow cellularity or spleen weights ([5]; 7-day infusion): not accompanied by a significant change
- major organ toxic effects ([5]; infused for 7 days, any of the doses employed): no major organ toxic effects

Compound: bryostatin 8
- lowest concentration at which colony stimulating activity was observed ([1]; 14 days of culture): 10 pM
